From ChEMBL document CHEMBL1134899, “Non-steroidal pregnancy-terminating agents: design, synthesis and structure-activity relationships of 2-aryl-1,2,4-triazolo[1,5-a]pyridine” (2002) come the findings set out here.

pEC50: −log10 of the molar value. The source made the active and inactive calls. The rule behind the calls is not given here.

Assay [1] is filed under the species Rattus norvegicus. Description: Compound was tested for in vitro activity of luteolysis on corpora lutea from pseudopregnant rats; inactive. The assay is classed as functional.
The species entered for assay [2] is Rattus norvegicus. Briefly: Compound was tested for in vitro activity of luteolysis on corpora lutea from pseudopregnant rats. The assay is classed as functional. Conditions: read-out: ED50 (the source's name).

For `Cc1cccc2nc(-c3ccccc3)nn12`, in the assay listed under Rattus norvegicus [1], the ED50 result was “inactive”.

For the compound `Cc1cccc2nc(-c3ccc4c(c3)OCO4)nn12`, the pEC50 in the assay filed under Rattus norvegicus [2] was 4.19.
